Test results published in US6355481B1, “Hybridoma cell line and monoclonal antibody for huntingtin protein” (Emory University, priority 1999, dated 2002).

Columns and labels:
20Q cells [1] = test: EM48 immunofluorescence and Hoechst staining after LMB, 20Q cells; format: cell-based, rat; details: LMB 10 nM
Procedure: (§1) Immunofluorescent labeling of cultured cells. Transfected cells grown in chamber slides were fixed in 4% paraformaldehyde in PBS for 15 min, permeabilized with 0.4% Triton X-100 in PBS for 30 min, blocked with 5% normal goat serum (NGS) in PBS for 1 hr, and incubated with primary antibodies in 2% NGS and PBS overnight at 4° C. After several washes, the cells were incubated with secondary antibodies conjugated with either FITC or rhodamine (Jackson ImmunoResearch, West Grove, Pa.). Hoechst dye (1 μg/ml) was used to label the nuclei. A Zeiss fluorescent microscope (Axioskop 2) and video system (Dage-MTI, Michigan City, Ind.) were used to capture images. The captured images were stored and processed using Adobe Photoshop software. Cell viability and apoptosis assays. […] PC12 cells were plated in 96-well plates at a density of 10,000 cells/well and maintained 16-24 hr in complete medium. […] Leptomycin B (LMB; 10 nM) [provided by Dr. Minoru Yoshida (Kudo et al. (1997) J. Biol. Chem. 272:29742-29751)] was added to the medium for 12-16 hr. After drug treatment, 20 μl of MTS reagent (2.1 mg/ml) was added to each well. The cells were then incubated for 30-45 min at 37° C. in a 5% CO2 incubator. The reaction was stopped by adding 25 μl of 10% SDS. The plates were read with a microplate reader (SPECTRAmax Plus; Molecular Devices, Palo Alto, Calif.) at 490 nm. […]

150Q cells [2] = test: EM48 immunofluorescence and Hoechst staining after LMB, 150Q cells; format: cell-based, rat; details: LMB 10 nM
Procedure: as §1

150Q cells [3] = test: Cell viability (MTS) assay, 150Q cells; format: cell-based, rat
Procedure: Cell viability and apoptosis assays. […] PC12 cells were plated in 96-well plates at a density of 10,000 cells/well and maintained 16-24 hr in complete medium. […] Leptomycin B (LMB; 10 nM) [provided by Dr. Minoru Yoshida (Kudo et al. (1997) J. Biol. […] After drug treatment, 20 μl of MTS reagent (2.1 mg/ml) was added to each well. The cells were then incubated for 30-45 min at 37° C. in a 5% CO2 incubator. The reaction was stopped by adding 25 μl of 10% SDS. The plates were read with a microplate reader (SPECTRAmax Plus; Molecular Devices, Palo Alto, Calif.) at 490 nm. Each data point was obtained using a triplet-well assay.

150Q cells [4] = test: Trypan blue exclusion cell death assay, 150Q cells; format: cell-based, rat
Procedure: (§2) Cell death rate and neurite outgrowth assays. Cells were plated at a standard density (4×10^4/cm^2) in six-well plates with DMEM supplemented with 5% FBS and 10% horse serum. Cultured cells were harvested, centrifuged at 1000 rpm for 5 min, and resuspended in PBS containing 0.4% trypan blue. The cells were incubated in the trypan blue solution for 10 min and transferred to a hemocytometer, and the number of viable (phase bright) and nonviable (blue) cells was recorded. For each sample, cell counts in four corner fields of the hemocytometer were averaged.

20Q cells [5] = test: Cell viability (MTS) assay, 20Q cells; format: cell-based, rat; details: 20Q cells vs parental PC12 cells, >250 nM staurosporine
Procedure: Cell viability was determined by a modified 3-(4,5-dimethylthiazol-2-yl)-2,5-diphenyltetrazohum bromide (MTS) assay (Cell Titer 96; Promega), which is based on the conversion of tetrazolium salt 3-(4,5-dimethylthiazol-2-yl)-5-(3-carboxymethoxyphenyl)-2-(4-sulfophenyl) 2-H-tetrazolium by mitochondrial dehydrogenase to a formazan product, as measured at an absorbance of 490 nm. PC12 cells were plated in 96-well plates at a density of 10,000 cells/well and maintained 16-24 hr in complete medium. Cells were then changed to medium containing 1% FBS in the absence or presence of staurosporine at different concentrations. Staurosporine was dissolved in 2 mM dimethylsulfoxide (DMSO) and diluted in the medium at various concentrations. […] After drug treatment, 20 μl of MTS reagent (2.1 mg/ml) was added to each well. The cells were then incubated for 30-45 min at 37° C. in a 5% CO2 incubator. The reaction was stopped by adding 25 μl of 10% SDS. The plates were read with a microplate reader (SPECTRAmax Plus; Molecular Devices, Palo Alto, Calif.) at 490 nm. Each data point was obtained using a triplet-well assay.

parental PC12 cells [6] = test: Neurite outgrowth assay, parental PC12 cells; format: cell-based, rat; details: for neurite outgrowth promoted by growth factor: control/parental PC12 cells, IL-6 20 ng/ml, CNTF 20 ng/ml, EGF 10 ng/ml, bFGF 20 ng/ml
Procedure: To evaluate neurite outgrowth, we plated the cells at low density (2×10^4 Cells/cm^2) onto six-well plates. Cell cultures were treated with NGF (100 ng/ml) for 48 hr or with staurosporine (50-100 nM) and EGF (10 ng/ml) for 16 hr and were fixed with 4% paraformaldehyde in PBS for 15 min. After several washes with PBS, cells with neurites exceeding the cell diameter were counted using an inverted microscope (Olympus Optical CK2, Tokyo, Japan). At the same time, five to seven images (10×) were captured by a Pixera camera, and the percentage of cells with neurites was confirmed by analyzing these images. On average, 500-800 cells were counted for each group.

parental PC12 cells [7] = test: Trypan blue exclusion cell death assay, parental PC12 cells; format: cell-based, rat; details: 100 nm staurosporine
Procedure: as §2

parental PC12 cells [8] = details: PC12 cells (Yao et al. 1997); cited from earlier work
[9] = tested on: PC12 cells expressing the 150Q mutant HD exon-1 protein (150Q cells); test: Neurite outgrowth assay, 150Q cells; format: cell-based, rat
Description: (§3) Huntingtin constructs, transfection, and selection of stably transfected cell lines. A partial huntingtin CDNA containing 20 (20Q) or 150 CAG repeats was isolated from a lambda phage DNA that contains exon-1 of the human HD gene [provided by Dr. Gillian Bates (Mangiarini et al. (1996) Cell 87:493-506)]. The N-terminal huntingtin fragments encoded by these cDNAs were expressed using the pCIS expression vector that carries a cytomegalovirus promoter (Li et al. (1998) Hum. Molec. Genet. 7:777-782). The pCDNA3 vector, which carries the G418 resistance gene (Invitrogen, San Diego, Calif.), was cotransfected with the pCIS-huntingtin constructs. Subconfluent PC12 cells in 80 mm dishes were transfected with 7 μg of plasmid DNA and 10 μg/ml lipofectAMINE (Life Technologies) per dish. The transfected cells were then selected in the presence of 500 μg/ml G418 in DM EM plus 5% fetal bovine serum and 10% horse serum. Selected G418-resistant cells were subcloned and maintained in the same conditioned medium until each cell line contained homogenous transfected cells. […]
(§4) To evaluate neurite outgrowth, we plated the cells at low density (2×10^4 Cells/cm^2) onto six-well plates. […] After several washes with PBS, cells with neurites exceeding the cell diameter were counted using an inverted microscope (Olympus Optical CK2, Tokyo, Japan). […] On average, 500-800 cells were counted for each group.

[10] = tested on: PC12 cells expressing the 20Q HD exon-1 protein (20Q cells); test: Neurite outgrowth assay, 20Q cells; format: cell-based, rat; details: IL-6 20 ng/ml
Description: as §3, §4

[11] = 150Q cells treated with EGF and staurosporine together

Molecule: CCC(=C/[C@H](C)C/C=C/C(C)=C/[C@@H](C)C(=O)[C@@H](C)[C@H](O)[C@@H](C)C/C(C)=C/C(=O)O)/C=C/[C@@H]1OC(=O)C=C[C@@H]1C [LMB, Leptomycin B]
- DNA fragmentation after LMB (20Q cells [1]): very few LMB-treated 20Q cells had DNA fragmentation
- nuclear labeling after LMB (20Q cells [1]): increased the nuclear labeling of some 20Q cells
- DNA fragmentation after LMB (150Q cells [2]): more 150Q cells showed DNA fragmentation
- intranuclear EM48 labeling after LMB (150Q cells [2]; vs without LMB): more 150Q cells had intense intranuclear EM48 labeling
- cell viability after exposure to LMB (150Q cells [3]; 150Q cells vs control cells, LMB 10 nM): more 150Q cells than control cells were dying

Molecule: CN[C@@H]1C[C@H]2O[C@@](C)([C@@H]1OC)n1c3ccccc3c3c4c(c5c6ccccc6n2c5c31)C(=O)NC4 [staurosporine]
- cell death with staurosporine (150Q cells [4]; 150Q cells, 100 nm staurosporine): killed a significant number of 150Q cells
- cell killing by higher doses of staurosporine (20Q cells [5]): killed more 20Q cells than parental PC12 cells
- neurite outgrowth with staurosporine (parental PC12 cells [6]; parental PC12 cells, 100 nm staurosporine): grew neurites
- cell death with staurosporine (parental PC12 cells [7]): without displaying significant cell death
- time to initiation of neurite outgrowth (parental PC12 cells [8]): 4 to 6 h
- neurite outgrowth with staurosporine ([9]; 150Q cells, 100 nm staurosporine, living cells): some of the living 150Q cells displayed neurite outgrowth
- susceptibility to staurosporine (cell viability) (150Q cells [3]; 150Q cells vs 20Q or parental PC12 cells, 10-125 nM staurosporine): more susceptible

Molecule: EGF: epidermal growth factor (NSDSECPLSHDGYCLHDGVCMYIEALDKYACNCVVGYIGERCQYRDLKWWELR; Epidermal growth factor; UniProt P01133 971-1023, looked up)
- effect of EGF on cell death (150Q cells [4]; [11]): reduced cell death
- neurite outgrowth promoted by growth factor (parental PC12 cells [6]): very weak effect
- effect of EGF on neurite outgrowth [9, 11]: significantly enhanced neurite outgrowth
- effect of EGF on cell viability (150Q cells [3]; 150Q cells, EGF 10 ng/ml in the presence of 10-100 nM staurosporine): significantly increased cell viability

Molecule: IL-6: interleukin-6
- neurite outgrowth promoted by growth factor (parental PC12 cells [6]): promoted neurite outgrowth
- neurite outgrowth promoted by growth factor [10]: promoted neurite outgrowth
